Results from PubChem BioAssay (NCI).
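Each compound was tested at five concentrations against cells in 96-well plates for 48 hours. Here, GI50 denotes the concentration required for 50% inhibition of growth. TGI: total growth inhibition.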 Where a SMILES comes first, the peptide text is derived from it. [ ]: non-standard residue; d: D form. 2Nal = N[CH](Cc1ccc2ccccc2c1)C(=O)O

How the values were obtained:
Assay in all cases: DTP human tumour cell line panel, 48 h
A549 NSCLC = test system: A549 NSCLC
ACHN renal = test system: ACHN renal
EKVX NSCLC = test system: EKVX NSCLC
KM12 colon = test system: KM12 colon
MOLT-4 leukemia = test system: MOLT-4 leukemia
NCI-H226 lung = test system: NCI-H226 lung
SK-MEL-2 melanoma = test system: SK-MEL-2 melanoma
SK-MEL-28 melanoma = test system: SK-MEL-28 melanoma
UACC-257 melanoma = test system: UACC-257 melanoma
UACC-62 melanoma = test system: UACC-62 melanoma

SMILES | GI50 (A549 NSCLC) [µM] | TGI (A549 NSCLC) [µM] | GI50 (ACHN renal) [µM] | TGI (ACHN renal) [µM] | GI50 (EKVX NSCLC) [µM] | TGI (EKVX NSCLC) [µM] | GI50 (KM12 colon) [µM] | TGI (KM12 colon) [µM] | GI50 (MOLT-4 leukemia) [µM] | TGI (MOLT-4 leukemia) [µM] | GI50 (NCI-H226 lung) [µM] | TGI (NCI-H226 lung) [µM] | GI50 (SK-MEL-2 melanoma) [µM] | TGI (SK-MEL-2 melanoma) [µM] | GI50 (SK-MEL-28 melanoma) [µM] | TGI (SK-MEL-28 melanoma) [µM] | GI50 (UACC-257 melanoma) [µM] | TGI (UACC-257 melanoma) [µM] | GI50 (UACC-62 melanoma) [µM] | TGI (UACC-62 melanoma) [µM]
O=C(Nc1nc(-c2ccc(Cl)cc2)nc2c1sc(=S)n2-c1ccccc1)C(F)(F)F | 3.88 | 18 | 1.81 | 3.56 | 3.83 | 31.8 | 4.89 | > 100 | > 100 | > 100 | 2.89 | 9.61 | 5.8 | 22.7 | 6.01 | > 100 | 10.7 | 60 | 3.55 | 15
C=C1CCC2C3(C)COC(c4ccc(Cl)cc4)OC3CCC2(C)C1/C=C/C1=CCOC1=O (stereo not drawn) | 2.37 | 32.5 | 12.1 | 50.9 | 0.751 | 29.8 | 9.19 | > 100 | 4.5 | > 100 | 7.06 | > 100 | 17.9 | > 100 | 21.7 | > 100 | 4.63 | > 100 | 4 | > 100
COc1cc(/C=C\c2ccc(OC(C)=O)cc2)cc(OC)c1OC | – | > 100 | – | > 100 | – | > 100 | – | > 100 | – | > 100 | – | > 100 | – | > 100 | – | 7.67 | – | > 100 | – | > 100
CC1=NN(C(=O)c2ccncc2)C(=O)C1N=Nc1ccc2ccccc2c1 (stereo not drawn) | – | > 100 | – | > 100 | – | > 100 | – | > 100 | – | > 38.1 | – | > 100 | – | > 95.2 | – | > 100 | – | > 100 | – | > 100
C/C=C(/C)C(=O)OC1C=C(CO)C(=O)C(OC(=O)C(C)(O)C(C)Cl)C1C(C)C (stereo not drawn) | 2.81 | 9.36 | 0.829 | 2.06 | 2.19 | 4.9 | 1.75 | 3.47 | 0.301 | 4.88 | 3.72 | 13 | 2.06 | 4.29 | 1.46 | 2.98 | 1.42 | 3.32 | 0.744 | 2.05
CCCN1C(=O)/C(=C/c2ccc(O)cc2)SC1=Nc1ccc(OC)cc1 | 12.5 | 26.1 | 12.7 | 25.3 | 12.3 | 27.9 | 10.6 | 28.7 | 10.7 | > 100 | 32 | 95.5 | 37.1 | > 100 | 19.4 | 41 | 17.3 | 31.7 | 17.6 | 33.7
CSc1ccc(C2=NN(C(C)=O)C(c3ccc(F)cc3)C2)cc1 (stereo not drawn) | 12.1 | 30.9 | 16.9 | 35.6 | 21.6 | 64.7 | 12.8 | 36.5 | 2.36 | 9.69 | 13.7 | 31.5 | 20.5 | 41.2 | 17 | 34.2 | 22.4 | 45 | 7.97 | 21.1
CC(=O)O[C@H]1C(=O)[C@@]2(C)[C@H]([C@H](OC(=O)c3ccccc3)[C@@]3(O)C[C@H](O)C(C)=C1C3(C)C)[C@]1(OC(C)=O)CO[C@@H]1C[C@@H]2O | – | > 100 | – | > 100 | – | > 100 | – | > 100 | – | > 100 | – | > 100 | – | > 100 | – | > 100 | – | > 100 | – | > 100
CC(C)C(NC(=O)C(CCCCN)NC(=O)C(Cc1c[nH]c2ccccc12)NC(=O)C(Cc1ccc(O)cc1)NC(=O)C(CS)NC(=O)C(N)Cc1ccc2ccccc2c1)C(=O)NC(CS)C(=O)NC(C(N)=O)C(C)O (stereo not drawn) (H-[2Nal]CYWKVCT-NH2; configuration not given here) | > 100 | > 100 | > 100 | > 100 | > 100 | > 100 | > 100 | > 100 | > 100 | > 100 | – | > 12.5 | > 100 | > 100 | – | > 100 | > 100 | > 100 | > 100 | > 100
COCOCC[C@@H]1CC=CC(NC(=O)OCc2ccccc2)C1/C=C/C(=O)CCC1OCCO1 (stereo partly drawn) | – | > 100 | – | > 100 | – | > 100 | – | 45.4 | – | 43.4 | – | > 100 | – | > 76.5 | – | > 63.3 | – | 66.3 | – | > 75.4
C/C(CCn1[nH]c(=O)ccc1=O)=N\Nc1ccc([N+](=O)[O-])cc1[N+](=O)[O-] | – | > 100 | – | > 100 | – | > 100 | – | > 100 | – | > 100 | – | > 100 | – | > 100 | – | > 100 | – | > 100 | – | > 100
Cc1cn2c(/C=C3/C(=O)Nc4ccc(F)cc43)c(C)nc2s1 | 6.37 | > 50 | 17.2 | > 50 | 17.3 | > 50 | 2.34 | > 50 | 5.02 | 33.2 | 17.1 | > 50 | 8.76 | > 50 | 4.11 | > 50 | 36.2 | > 50 | 3.85 | 48.3
CC(C)(C)NC/C(=C\c1ccccc1)C(=O)c1ccccc1 | 2.75 | 8.23 | 1.45 | 3.62 | 3.29 | 13.6 | 3.01 | 24.4 | 2.23 | 45.9 | 2.2 | 11.2 | 2.01 | 5.02 | 1.9 | 3.75 | 2.12 | 6.91 | 1.51 | 4.91
O=S(=O)(Nc1ccc2ccccc2c1)c1ccc(-c2cnc(C3CC3)o2)cc1 | 1.74 | > 100 | 2.61 | 42.8 | 2.76 | 59.9 | 0.624 | 14.7 | 0.873 | > 100 | 3.99 | 20.4 | 1.43 | 20.6 | 4.8 | 20.8 | 10.4 | 31.5 | 0.914 | 14.5
